According to patent US20070026506A1, “METHOD FOR THE PRODUCTION OF TAXOL AND/OR TAXANES FROM CULTURES OF HAZEL CELLS” (Centro Biotecnologie Avanzate, priority 2005, published 2007):

Assays:
Type in all cases: cell-based
[1] = test system: explants of Corylus avellana; assay: callus induction from explants of Corylus avellana; conditions: for CALLUS INDUCTION 15 days Leaves (%) / CALLUS INDUCTION 30 days Leaves (%): C. avellana leaves; for CALLUS INDUCTION 15 days Seeds (%) / CALLUS INDUCTION 30 days Seeds (%): C. avellana seeds; for CALLUS INDUCTION 15 days Stems (%) / CALLUS INDUCTION 30 days Stems (%): C. avellana stems
Procedure: (§1) Therefore, in vitro cultures of plant tissues were prepared using leaves, stems and seeds of Corylus avellana (hazel) and of Taxus baccata. Both species used derive from land cultivations in Piedmont and Liguria.
(§2) The plant material was first sterilised, immersing it in a 5% NaClO solution for 20 minutes, and then washed with sterile distilled water three times.
(§3) The plant parts were fragmented and transferred into sterile Petri dishes containing MS solid medium at a concentration of 4.3 g/l, containing vitamins (1 ml/l), sucrose (20 g/l), agar (10 g/l) and phytohormones at different concentrations, all previously sterilised in an autoclave at 121° C. for 15 minutes.
(§4) In the preparation of cultures in vitro 2,4-dichlorophenoxyacetic acid (2,4-D), naphthaleneacetic acid (NAA), benzyladenine (BA) were used as phytohormones, in the following combinations and concentrations: • 2,4-D 1 mg/l • 2,4-D 0.5 mg/l • BA 1 mg/l • BA 0.5 mg/l • 2,4-D 0.5 mg/l+BA 1 mg/l • 2,4-D 1 mg/l+BA 0.5 mg/l • NAA 2 mg/l • NAA 2 mg/l+BA 0.5 mg/l Callus Induction
(§5) For each type of plant tissue (leaf, stem, seed) and for each species (taxus, hazel) at least 96 dishes were prepared: 12 dishes for each hormone concentration or combination. The dishes containing the plant material were kept inside a phytochamber, in the dark and at a constant temperature of 26° C.
(§6) The fragments were transferred, every 15 days, into new dishes with fresh medium containing the corresponding starting hormone or mixture of hormones. After 15 and 30 days from the culturing of the hazel differentiated tissue explants, the formation of the callus was evaluated. The formation of the callus for the taxus was evaluated at 30 and at 60 days, since before then the callus was not clear.

[2] = test system: callus of Corylus avellana; assay: regeneration of callus (formation of young plants), Corylus avellana; conditions: about three months from culturing
[3] = test system: callus of Taxus baccata; assay: regeneration of callus (formation of young plants), Taxus baccata; conditions: about three months from culturing
[4] = test system: explants of Taxus baccata; assay: callus induction from explants of Taxus baccata; conditions: for CALLUS INDUCTION 30 days Leaves (%) / CALLUS INDUCTION 60 days Leaves (%): T. baccata leaves; for CALLUS INDUCTION 30 days Seeds (%) / CALLUS INDUCTION 60 days Seeds (%): T. baccata seeds; for CALLUS INDUCTION 30 days Stems (%) / CALLUS INDUCTION 60 days Stems (%): T. baccata stems
Procedure: as §1, §2, §3, §4, §5, §6

Row | Structure (SMILES) | CALLUS INDUCTION 15 days Leaves (%) ([1]; hormone 0.5 mg/l) | CALLUS INDUCTION 15 days Leaves (%) ([1]; hormone 1 mg/l) | CALLUS INDUCTION 30 days Leaves (%) ([1]; hormone 0.5 mg/l) | CALLUS INDUCTION 30 days Leaves (%) ([1]; hormone 1 mg/l) | CALLUS INDUCTION 15 days Seeds (%) ([1]; hormone 0.5 mg/l) | CALLUS INDUCTION 15 days Seeds (%) ([1]; hormone 1 mg/l) | CALLUS INDUCTION 30 days Seeds (%) ([1]; hormone 0.5 mg/l) | CALLUS INDUCTION 30 days Seeds (%) ([1]; hormone 1 mg/l) | CALLUS INDUCTION 15 days Stems (%) ([1]; hormone 0.5 mg/l) | CALLUS INDUCTION 15 days Stems (%) ([1]; hormone 1 mg/l) | CALLUS INDUCTION 30 days Stems (%) ([1]; hormone 0.5 mg/l) | CALLUS INDUCTION 30 days Stems (%) ([1]; hormone 1 mg/l) | FORMATION OF YOUNG PLANTS (%) C. avellana ([2]; hormone 0.5 mg/l) [%] | FORMATION OF YOUNG PLANTS (%) C. avellana ([2]; hormone 1 mg/l) [%] | FORMATION OF YOUNG PLANTS (%) T. baccata ([3]; hormone 0.5 mg/l) [%] | FORMATION OF YOUNG PLANTS (%) T. baccata ([3]; hormone 1 mg/l) [%] | CALLUS INDUCTION 30 days Leaves (%) ([4]; hormone 0.5 mg/l) | CALLUS INDUCTION 30 days Leaves (%) ([4]; hormone 1 mg/l) | CALLUS INDUCTION 60 days Leaves (%) ([4]; hormone 0.5 mg/l) | CALLUS INDUCTION 60 days Leaves (%) ([4]; hormone 1 mg/l) | also measured
1 | O=C(O)COc1ccc(Cl)cc1Cl [2,4-D, 2,4-dichlorophenoxyacetic acid] | 40.8 | 35.3 | 41.86 | 35.5 | 27.7 | 28.3 | 61.6 | 56.2 | 30.5 | 25.0 | 75.0 | 68.5 | 15.8 | 15.5 | 0 | 0 | 10.9 | 25.3 | 63.8 | 56.3 | CALLUS INDUCTION 30 days Seeds (%) ([4]; hormone 0.5 mg/l): 17.4%; CALLUS INDUCTION 30 days Seeds (%) ([4]; hormone 1 mg/l): 26.5%; CALLUS INDUCTION 60 days Seeds (%) ([4]; hormone 0.5 mg/l): 43.7%; CALLUS INDUCTION 60 days Seeds (%) ([4]; hormone 1 mg/l): 37.7%; CALLUS INDUCTION 30 days Stems (%) ([4]; hormone 0.5 mg/l): 46.8%; CALLUS INDUCTION 30 days Stems (%) ([4]; hormone 1 mg/l): 67.0%; CALLUS INDUCTION 60 days Stems (%) ([4]; hormone 0.5 mg/l): 65.8%; CALLUS INDUCTION 60 days Stems (%) ([4]; hormone 1 mg/l): 76.3%
2 | O=C(O)Cc1cccc2ccccc12 [NAA, naphthaleneacetic acid] | – | – | – | – | – | – | – | – | – | – | – | – | – | – | – | – | – | – | – | – | CALLUS INDUCTION 15 days Leaves (%) ([1]; hormone 2 mg/l): 8.3%; CALLUS INDUCTION 30 days Leaves (%) ([1]; hormone 2 mg/l): 22.1%; CALLUS INDUCTION 15 days Seeds (%) ([1]; hormone 2 mg/l): 4.4%; CALLUS INDUCTION 30 days Seeds (%) ([1]; hormone 2 mg/l): 41.3%; CALLUS INDUCTION 15 days Stems (%) ([1]; hormone 2 mg/l): 8.3%; CALLUS INDUCTION 30 days Stems (%) ([1]; hormone 2 mg/l): 5.4%; FORMATION OF YOUNG PLANTS (%) C. avellana ([2]; hormone 2 mg/l): 14.4%; FORMATION OF YOUNG PLANTS (%) T. baccata ([3]; hormone 2 mg/l): 1%; CALLUS INDUCTION 30 days Leaves (%) ([4]; hormone 2 mg/l): 23.8%; CALLUS INDUCTION 60 days Leaves (%) ([4]; hormone 2 mg/l): 33.0%; CALLUS INDUCTION 30 days Seeds (%) ([4]; hormone 2 mg/l): 28.0%; CALLUS INDUCTION 60 days Seeds (%) ([4]; hormone 2 mg/l): 52.0%; CALLUS INDUCTION 30 days Stems (%) ([4]; hormone 2 mg/l): 55.0%; CALLUS INDUCTION 60 days Stems (%) ([4]; hormone 2 mg/l): 56.3%
3 | c1ccc(CNc2ncnc3nc[nH]c23)cc1 [BA, benzyladenine] | 1.7 | 0 | 4.6 | 4.6 | 5.1 | 4.0 | 10.3 | 13.8 | 0 | 2.5 | 0 | 15.0 | 13.3 | 8.7 | 0 | 0 | 2.0 | 2.0 | 4.5 | 3.0 | suitability for inducing callus from hazel ([1]; used alone at a concentration of 0.5 and 1 mg/l): least suitable for inducing callus from hazel; CALLUS INDUCTION 30 days Seeds (%) ([4]; hormone 0.5 mg/l): 6.2%; CALLUS INDUCTION 30 days Seeds (%) ([4]; hormone 1 mg/l): 0%; CALLUS INDUCTION 60 days Seeds (%) ([4]; hormone 0.5 mg/l): 32.7%; CALLUS INDUCTION 60 days Seeds (%) ([4]; hormone 1 mg/l): 0%; CALLUS INDUCTION 30 days Stems (%) ([4]; hormone 0.5 mg/l): 2.0%; CALLUS INDUCTION 30 days Stems (%) ([4]; hormone 1 mg/l): 2.5%; CALLUS INDUCTION 60 days Stems (%) ([4]; hormone 0.5 mg/l): 9.0%; CALLUS INDUCTION 60 days Stems (%) ([4]; hormone 1 mg/l): 2.8%; activity in callus induction of taxus cultures ([4]; taxus cultures, exception stated for callus from seed at 60 days): not to be very active
